Experimental data reported in patent US20180200233A1, “COMPOSITIONS FOR PREVENTING CANCERS ASSOCIATED WITH HUMAN PAPILLOMA VIRUSES” (Loma Linda University, priority 2015, published 2018).

Columns and labels:
p53 level in C33A cells = assay: p53 ELISA in C33A cells; assay type: cell-based, human; conditions: 200 μM myricetin, 100 μM spinacine; with mitomycin C, 24 h
Experimental: (§1) FIGS. 6A-B is an immunoblot and FIG. 6B is a graph showing that treatment with myricetin and spinacine (5) increased cellular levels of caspase 8 and p53. (FIG. 6A) SiHa cells (1×10^6 per well) were seeded into a 6-well plate and allowed to incubate overnight. The indicated concentrations of myricetin and spinacine were added, then cells were incubated for 24 h. Cells were then washed in 1×PBS, then harvested and the resulting level of caspase 8 was measured by immunoblot. (FIG. 6B) SiHa and C33A cells (1×10^6 per well) were seeded into a 6-well plate and allowed to incubate overnight. 200 μM of myricetin and 100 μM spinacine were added together with 4 μg/ml mitomycin C and incubated for 24 h. The resulting level of p53 was measured by ELISA, and the level of p53 found in untreated cells was set at 100%. Experiments were performed in triplicate, and error bars indicate the standard deviation.
If this ability is due to inhibition of E6 functions, then an increase in the levels of caspase 8 and p53 should be observable in SiHa cells following treatment with myricetin and spinacine. To test this prediction, SiHa cells were treated with 50, 100, and 200 μM of myricetin or spinacine for 24 hr, and then measured the level of caspase 8 by immunoblot. […] To ask how p53 levels were affected, an ELISA assay was employed. […]

[1] = test system: caspase 8 level in SiHa cells; assay: Immunoblot of caspase 8 level in SiHa cells; assay type: cell-based, human; conditions: 50, 100 and 200 μM for 24 hr
Experimental: as §1, with “Experiments were performed in triplicate, and error bars indicate the standard deviation.” left out
If this ability is due to inhibition of E6 functions, then an increase in the levels of caspase 8 and p53 should be observable in SiHa cells following treatment with myricetin and spinacine. To test this prediction, SiHa cells were treated with 50, 100, and 200 μM of myricetin or spinacine for 24 hr, and then measured the level of caspase 8 by immunoblot. […]
Cells (1×10^6) were collected and washed with PBS. […] Signals were measured using the Odyssey Infrared Imaging system (LI-COR Biosciences) and expressed in relative light units.

| Structure (SMILES) | change in p53 levels in C33A cells (in words) (p53 level in C33A cells) | caspase 8 levels in SiHa cells (in words) [1] |
| --- | --- | --- |
| O=C(O)C1Cc2[nH]cnc2CN1 (stereo not shown) [Compound 5, 4,5,6,7-Tetrahydro-1H-imidazo(4,5-c)pyridine-6-carboxylic acid] | no significant change | increase in caspase 8 at doses from 50 to 200 μM |
| O=c1c(O)c(-c2cc(O)c(O)c(O)c2)oc2cc(O)cc(O)c12 [Myricetin, reference compound] | no significant change | increase in caspase 8 levels at doses of 100 μM and 200 μM |
